From US20250215016A1, “ISOXAZOLE-HETEROCYCLIC DERIVATIVE, PHARMACEUTICAL COMPOSITION AND USE” (SHANGHAI SIMR BIOTECHNOLOGY CO., LTD, priority 2022, published 2025)
Converted amounts (≈) assume the structure as drawn.

Tests used:
α5-GABAA receptor = α5-GABAA receptor (Homo sapiens (Human), UniProt P18507+P31644); assay: Whole-cell patch clamp electrophysiology, inverse regulation activity in α5β3γ2-HEK293 cells; type: cell-based; details: compound 100 nM; GABA 0.05-0.06 μM (about EC7-8); clamped at −60 mV; read-out: Inverse regulation efficiency to α5-GABAA receptor
α5-GABAA receptor, sequence (P31644 32-462): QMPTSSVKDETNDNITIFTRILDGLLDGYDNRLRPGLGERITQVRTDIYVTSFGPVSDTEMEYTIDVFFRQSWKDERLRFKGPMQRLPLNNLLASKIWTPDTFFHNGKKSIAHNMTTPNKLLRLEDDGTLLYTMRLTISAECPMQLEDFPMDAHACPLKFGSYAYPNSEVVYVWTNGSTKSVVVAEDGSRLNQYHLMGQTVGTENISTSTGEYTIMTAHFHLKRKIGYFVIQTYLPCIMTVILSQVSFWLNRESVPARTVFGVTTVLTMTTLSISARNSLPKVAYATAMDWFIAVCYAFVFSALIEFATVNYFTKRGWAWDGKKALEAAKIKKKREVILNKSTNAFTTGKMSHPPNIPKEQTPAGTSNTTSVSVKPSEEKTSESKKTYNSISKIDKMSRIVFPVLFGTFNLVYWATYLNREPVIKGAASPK
α5-GABAA receptor, sequence (P28472 26-473 partner): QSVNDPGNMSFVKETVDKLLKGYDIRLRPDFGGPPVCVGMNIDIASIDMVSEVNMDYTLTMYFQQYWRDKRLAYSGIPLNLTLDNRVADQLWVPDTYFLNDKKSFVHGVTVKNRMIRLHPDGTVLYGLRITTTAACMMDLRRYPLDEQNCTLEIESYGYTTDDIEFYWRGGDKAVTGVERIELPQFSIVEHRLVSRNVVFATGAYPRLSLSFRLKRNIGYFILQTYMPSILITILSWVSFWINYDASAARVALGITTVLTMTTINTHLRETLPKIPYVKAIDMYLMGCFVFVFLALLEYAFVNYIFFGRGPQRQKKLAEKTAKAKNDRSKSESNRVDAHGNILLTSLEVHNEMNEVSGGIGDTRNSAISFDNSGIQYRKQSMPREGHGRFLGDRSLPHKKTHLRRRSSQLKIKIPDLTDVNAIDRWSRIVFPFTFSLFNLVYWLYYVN
α5-GABAA receptor, sequence (P18507 other isoform, or with tags, fused parts or gaps): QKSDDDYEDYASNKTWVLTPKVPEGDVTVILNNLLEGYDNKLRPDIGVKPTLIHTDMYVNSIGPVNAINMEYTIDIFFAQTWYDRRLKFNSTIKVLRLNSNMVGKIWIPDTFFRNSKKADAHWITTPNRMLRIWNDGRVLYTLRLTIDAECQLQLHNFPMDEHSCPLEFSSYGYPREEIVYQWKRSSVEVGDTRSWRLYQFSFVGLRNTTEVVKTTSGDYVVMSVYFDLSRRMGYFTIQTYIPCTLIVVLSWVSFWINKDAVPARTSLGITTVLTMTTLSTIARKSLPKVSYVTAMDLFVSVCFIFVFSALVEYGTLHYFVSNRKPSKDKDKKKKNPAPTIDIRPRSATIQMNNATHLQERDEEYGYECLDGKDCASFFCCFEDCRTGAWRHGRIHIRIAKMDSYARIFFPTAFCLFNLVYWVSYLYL
Outline: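 HEK293 cells expressing α5β3γ2 recorded whole-cell at −60 mV holding potential, GABA 0.05-0.06 μM (about EC7-8) applied, then compound at 100 nM final with GABA. pH 7.4 extracellular, CsCl-based pipette solution. Inverse regulation efficiency = (Itreatment−Igaba)/(Igaba−Iprebaseline)×100%.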

[1] = Thermodynamic solubility in simulated intestinal fluid (FaSSIF); type: physicochemical; details: 37° C., 1000 rpm
Experimental: 50 mM of phosphate buffer, pH=7.4:0.39 g of NaH2PO4·2H2O, 1.4025 g of Na2HPO4 were weighed, placed into an Erlenmeyer flask, dissolved with the addition of 240 ml of water, homogenously mixed, adjusted to pH 7.4 with 10 M NaOH solution, transferred into a 250 ml volumetric flask and diluted with water to the scale.
Simulated intestinal fluid FaSSIF: 54.76 mg of FaSSIF-V2 (Biorelevant, batch. V2FAS-0619-A, lot. V2FAS01) was weighed, and added to 15 ml of buffer, and after dissolution, the solution was made up to 30 ml and left to stand at room temperature for 1 hour for use.
Waters e2695 HPLC high performance liquid chromatography, Mettler XSE105 analytical balance.
Stock solution containing 10 mM of each test compound was formulated using DMSO, diluted into […] standard curve solution using diluent (ACN:PB buffer with a volume ratio of 50:50), and tested by HPLC to obtain a standard curve of concentration vs peak area of each test compound.
Thermodynamic solubility in simulated intestinal fluid (TS in FaSSIF). About 0.3 mg of each sample (test compound) was weighed, added into 1.5 mL of FaSSIF solution, two samples in parallel, shaken at 1000 rpm and 37° C. for 4 hours, and filtered, 1 mL of primary filtrate was discarded, then 400 μL of subsequent filtrate was taken, and tested by using a high performance liquid chromatograph (UV).

[2] = simulated intestinal fluid (FaSSIF), thermodynamic from solid

Structure (SMILES)	inhibition at 0.1 µM (α5-GABAA receptor) [%]	solubility thermodynamic at 4 h [1, 2] [mg/mL]	solubility thermodynamic at 4 h ([1]; simulated intestinal fluid FaSSIF, pH 7.4, thermodynamic from solid) [mg/mL]
Cc1onc(-c2ccc(F)cc2)c1COc1ccc(N2CCn3ccnc3C2=O)nn1 [Compound 37, 7-(6-((3-(4-fluorophenyl)-5-methylisoxazol-4-yl)methoxy)pyridazin-3-yl)-6,7-dihydroimidazo[1,2-a]pyrazin-8(5H)-one]	54	0.0602 (≈ 143 µM)	–
Cc1onc(-c2ccc(F)cc2)c1COc1cnc(-c2nnc3n2CCOCC3)cn1 [Compound 33, 3-(5-((3-(4-fluorophenyl)-5-methylisoxazol-4-yl)methoxy)pyrazin-2-yl)-5,6,8,9-tetrahydro-[1,2,4]triazolo[4,3-d][1,4]oxazepane]	48	0.0395 (≈ 93.5 µM)	–
Cc1onc(-c2ccc(F)cc2)c1COc1cnc(-c2nnc3n2CCC3)cn1 [Compound 23, 4-(((5-(6,7-dihydro-5H-pyrrolo[2,1-c][1,2,4]triazol-3-yl)pyrazin-2-yl)oxy)methyl)-3-(4-fluorophenyl)-5-methylisoxazole]	45	0.0396 (≈ 101 µM)	–
Cc1onc(-c2ccc(F)cc2)c1COc1ccc(N2CCN3CCNC(=O)C3C2)nn1 (stereo not shown) [Compound 10, 8-(6-((3-(4-fluorophenyl)-5-methylisoxazol-4-yl)methoxy)pyridazin-3-yl) hexahydro-2H-pyrazino[1,2-a]pyrazin-1 (6H)-one]	66	0.0194 (≈ 44.1 µM)	–
Cc1onc(-c2ccc(F)cc2)c1COc1cnc(-c2nnc3n2CCCOC3)cn1 [Compound 24, 3-(5-((3-(4-fluorophenyl)-5-methylisoxazol-4-yl)methoxy)pyrazin-2-yl)-6,7-dihydro-5H,9H-[1,2,4]triazolo[3,4-c][1,4]oxazepane]	44	–	0.0183 (≈ 43.3 µM)
Cc1onc(-c2ccc(F)cc2)c1COc1ccc(-c2cc3n(c(=O)n2)C[C@]24CO[C@H](CN32)C4)cn1 [Compound 38]	56	–	–
Cc1onc(-c2ccc(F)cc2)c1COc1ccc(-c2nnc3n2CCOC3)nn1 [Compound 18, 3-(6-((3-(4-fluorophenyl)-5-methylisoxazol-4-yl)methoxy)pyridazin-3-yl)-5,6-dihydro-8H-[1,2,4]triazolo[3,4-c][1,4]oxazine]	57	–	–
Cc1onc(-c2ccc(F)cc2)c1COc1ccc(-c2nnc3n2CCS(=O)(=O)C3)cn1 [Compound 7, 3-(6-((3-(4-fluorophenyl)-5-methylisoxazol-4-yl)methoxy)pyridin-3-yl)-5,6-dihydro-8H-[1,2,4]triazolo[3,4-c][1,4]thiazine 7,7-dioxide]	37	0.157 (≈ 344 µM)	–
Cc1onc(-c2ccc(F)cc2)c1COc1ccc(-c2cc3n(c(=O)n2)CCN3C)cn1 [Compound 41, 7-(6-((3-(4-fluorophenyl)-5-methylisoxazol-4-yl)methoxy)pyridin-3-yl)-1-methyl-2,3-dihydroimidazo[1,2-c]pyrimidin-5(1H)-one]	47	–	–
Cc1onc(-c2ccc(F)cc2)c1COc1cnc(-c2nnc3n2CCOC3)cn1 [Compound 19, 3-(5-((3-(4-fluorophenyl)-5-methylisoxazol-4-yl)methoxy)pyrazin-2-yl)-5,6-dihydro-8H-[1,2,4]triazolo[3,4-c][1,4]oxazine]	54	0.0152 (≈ 37.3 µM)	–
Cc1onc(-c2ccc(F)cc2)c1COc1ccc(-c2nnc3n2CCOC3)cn1 [Compound 17, 3-(6-((3-(4-fluorophenyl)-5-methylisoxazol-4-yl)methoxy)pyridin-3-yl)-5,6-dihydro-8H-[1,2,4]triazolo[3,4-c][1,4]oxazine]	49	0.0331 (≈ 81.2 µM)	–
